Reference: EP4438597A1, “2-STYRYLBENZOTHIAZOLE DERIVATIVES AS A-SYNUCLEIN BINDING COMPOUNDS” (Eberhard Karls Universität Tübingen Medizinische Fakultät, priority 2023, dated 2024)

Columns and labels:
[1] = in vivo dynamic PET/MR imaging, pharmacokinetic profile; conditions: healthy wild-type mice, i.v.
Protocol: The animal experiments were performed in compliance to the European directives on the protection and use of laboratory animals (Council Directive 2010/63/UE) and the German animal welfare act with approval from the local authorities (Regierungspräsidium Tuebingen, R3/19G). Three healthy wild-type female C57BU6J mice (20.3 ± 0.9 g; 9 weeks old) purchased from Charles River Laboratories (Sulzbach, Germany) were maintained in a vivarium on a 12:12 hour light dark cycle and were kept at a temperature of 22°C with 40-60% humidity and free access to a standard diet and tap water.
The mice (n = 3) were anaesthetized with 1.5% isoflurane evaporated in 100% oxygen at a flow rate of 0.8 L/min. Body temperature of 37°C was maintained using a feedback temperature control unit. PET imaging studies were performed on Inveon dedicated microPET system (Inveon D-PET, Siemens, Knoxville, TN, USA). Five seconds after the start of PET acquisition, mice were injected intravenously with 9.9 ± 0.6 MBq of [^18F]MFSB (Am = 46.2 ± 2.5 GBq/µmol at time of injection). The one-hour dynamic acquisitions were divided into 39 time frames (12×5 s, 6×10 s, 6×30 s, 5×60 s and 10×300 s). A 13-minute transmission measurement with a cobalt-57 point source was performed for attenuation correction. Subsequently, an anatomical magnetic resonance (MR) scan with a 7 Tesla MR scanner (ClinScan, Bruker BioSpin MRI GmbH, Ettlingen, Germany) using a rat whole-body volume coil and the Paravision software (v6.0.1, Bruker, Ettlingen, Germany) using a T2-weighted Turbo-RARE MRI sequence.
The PET image was reconstructed via the OSEM3D/SP-MAP reconstruction algorithm and coregistered to the whole-body MRI scan. […] Standardized uptake values (SUVs) were calculated as a ratio of the detected activity with injected activity and weight (SUV = (TAC (kBq/cc) / inj. activity (kBq)) * weight (g)).

αSYN pathology = target: T1, αSYN pathology (Homo sapiens, UniProt P37840); assay: in vitro autoradiography on human brain slices with αSYN pathology (MSA, PD); type: binding; conditions: 10 nM tracer, NSB with 10 µM non-radioactive compound
T1 construct: tissue Neurobiobank München (NBM, Munich, Germany); host or cells: post-mortem human brain slices (MSA cerebellum, PD frontal cortex, controls)
Protocol: Post-mortem human brain slices (10 µm thickness) were obtained from and the subject cases were analyzed by the Neurobiobank München (NBM, Munich, Germany), where tissues were collected on the basis of written informed consent according to the guidelines of the ethics committee of the Ludwig-Maximilians-University Munich, Germany (# 345-13). The use of brain tissue samples in this study was approved by the ethics committee of the Faculty of Medicine at the University of Tuebingen (Ethics approval number: 813/2018BO2). Table 1 summarizes the information of the subjects from which samples were obtained and used in the experiment.
For autoradiography, brain slices were thawed for one hour before preincubation in BSA buffer for 25 minutes at room temperature. To determine total binding (TB), brain slices were incubated with the tracer (10 nM [^18F]PFSB, 10 nM [^18F]MFSB). […]
Quantitative data analysis was performed by drawing four regions of interest (ROIs) in relevant areas of the slice and one ROI next to it for background subtraction (imaged 1.8.0_172, National Institute of Health, Bethesda, Maryland, USA) (Schneider, C. A. et al., NIH Image to imaged: 25 years of image analysis; Nat Methods 2012, 9 (7), 671-5). […] The SB disease/SB control ratio was calculated by dividing by the SB in diseased tissues with the respective SB in control tissues.

## [18F]c1ccc2nc(/C=C/c3ccc(N4CCOCC4)cc3)sc2c1 [[^18F]MFSB]
[1]; dynamic PET/MR over 60 min
  crossing of the BBB: crossing of the BBB was successful
  kidney uptake: Significant kidney uptake
[1]; first 2 min
  SUV in lungs and liver: ≈ 5
αSYN pathology
  SB disease/SB control, MSA1/cerebellum ctrl: 1.20
